Reference: PubChem BioAssay (NCI)
Where “and” joins values, the source holds several entries; their conditions need not be identical. Equal entries are not always repeated.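 Interpolation was linear, between the two tested concentrations surrounding the appropriate level; five concentrations were tested over 48 hours in 96-well plates. GI50 is the concentration that inhibits growth by half. The concentration for full growth arrest is given as TGI.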

Columns and labels:
Assay in all cases: growth of human tumour cells (NCI), 48 h
[1] = system: UACC-257 melanoma
[2] = system: SNB-75 CNS
[3] = system: PC-3 prostate
[4] = system: A549 NSCLC
[5] = system: T-47D breast
[6] = system: LOX IMVI melanoma
[7] = system: HOP-62 NSCLC
[8] = system: NCI/ADR-RES ovarian
[9] = system: HCC-2998 colon
[10] = system: CAKI-1 renal

**Q.** Which GI50 [1] does the source give for `CCCc1n(Cc2ccc3ccccc3c2)cc[n+]1Cc1ccc2ccccc2c1` here?
**A.** 0.466 µM

**Q.** What about the TGI [1] of the same compound?
**A.** 1.76 µM

**Q.** And the GI50 [2]?
**A.** 0.514 µM

**Q.** And the TGI [2]?
**A.** 3.04 µM

**Q.** What about the GI50 [3] of the same compound?
**A.** 1.17 µM

**Q.** What about the TGI [3] of the same compound?
**A.** 3.49 µM

**Q.** And the GI50 [4]?
**A.** 2.67 µM

**Q.** And the TGI [4]?
**A.** 12.1 µM

**Q.** What about the GI50 [5] of the same compound?
**A.** 0.377 µM

**Q.** What about the TGI [5] of the same compound?
**A.** 3.17 µM

**Q.** What about the GI50 [6] of the same compound?
**A.** 0.926 µM

**Q.** What about the TGI [6] of the same compound?
**A.** 2.19 µM

**Q.** What about the GI50 [7] of the same compound?
**A.** 1.26 µM

**Q.** And the TGI [7]?
**A.** 2.8 µM

**Q.** And the GI50 [8]?
**A.** 17.1 µM

**Q.** And the TGI [8]?
**A.** 44.3 µM

**Q.** What about the GI50 [9] of the same compound?
**A.** 0.716 µM

**Q.** And the TGI [9]?
**A.** 2.07 µM

**Q.** Which results are given for `CSCS(=O)C[C@H](CO)NC(=O)/C=C/c1c(C)[nH]c(=O)[nH]c1=O` (some centres not stated)?
**A.** GI50 [10]: 2.74 µM; GI50 [1]: 2.22 µM; TGI [1]: 7.79 µM and 4.86 µM; GI50 [2]: 1.14 µM; TGI [2]: 4.15 µM and 1.03 µM; GI50 [4]: 1.99 µM; TGI [4]: 8.93 µM and 5.64 µM; GI50 [6]: 0.449 µM; TGI [6]: 2.07 µM and 3.87 µM; GI50 [7]: 1.57 µM; TGI [7]: 4.92 µM and 3.67 µM; TGI [8]: 6.07 µM; GI50 [9]: 2.5 µM; TGI [9]: 6.27 µM and 4.1 µM

**Q.** How did the TGI [1] turn out when `N/N=C1\C(=O)N(Cc2ccccc2)C(=O)C1C(=O)NCc1ccccc1` (configuration not stated) was run?
**A.** > 100 µM

**Q.** What about the TGI [4] of the same compound?
**A.** > 100 µM

**Q.** And the TGI [7]?
**A.** > 100 µM

**Q.** And the TGI [9]?
**A.** > 100 µM

**Q.** With `COc1cc2c(c(OC)c1OC)-c1ccc(O)cc1[C@@H](NC(C)=O)CC2` as the compound, how does the GI50 [10] read?
**A.** 0.183 µM

**Q.** And the TGI [10]?
**A.** > 39.8 µM

**Q.** And the GI50 [1]?
**A.** > 68.3 µM

**Q.** And the TGI [1]?
**A.** > 100 µM

**Q.** What about the GI50 [3] of the same compound?
**A.** 0.0456 µM

**Q.** What about the TGI [3] of the same compound?
**A.** > 100 µM

**Q.** What about the GI50 [4] of the same compound?
**A.** 0.0666 µM

**Q.** What about the TGI [4] of the same compound?
**A.** > 100 µM

**Q.** And the GI50 [5]?
**A.** 0.0495 µM

**Q.** What about the TGI [5] of the same compound?
**A.** > 100 µM

**Q.** And the GI50 [6]?
**A.** 0.0803 µM

**Q.** And the TGI [6]?
**A.** > 100 µM

**Q.** What about the GI50 [7] of the same compound?
**A.** 0.051 µM

**Q.** What about the TGI [7] of the same compound?
**A.** > 100 µM

**Q.** What about the GI50 [8] of the same compound?
**A.** 0.533 µM

**Q.** What about the TGI [8] of the same compound?
**A.** 6.78 µM

**Q.** What about the GI50 [9] of the same compound?
**A.** 0.0465 µM

**Q.** What about the TGI [9] of the same compound?
**A.** > 100 µM

**Q.** `CSC(=NC#N)S/C=C/C(=O)c1ccccc1` was tested. Which GI50 [10] did it give?
**A.** 16.6 µM

**Q.** What about the TGI [10] of the same compound?
**A.** 37.2 µM

**Q.** What about the GI50 [1] of the same compound?
**A.** 45.4 µM

**Q.** And the TGI [1]?
**A.** > 100 µM

**Q.** And the GI50 [3]?
**A.** 33.2 µM

**Q.** And the TGI [3]?
**A.** > 100 µM

**Q.** And the GI50 [4]?
**A.** 90.6 µM

**Q.** What about the TGI [4] of the same compound?
**A.** > 100 µM

**Q.** What about the GI50 [5] of the same compound?
**A.** > 100 µM

**Q.** What about the TGI [5] of the same compound?
**A.** > 100 µM

**Q.** What about the GI50 [6] of the same compound?
**A.** 31 µM

**Q.** And the TGI [6]?
**A.** > 100 µM

**Q.** What about the GI50 [7] of the same compound?
**A.** 36 µM

**Q.** What about the TGI [7] of the same compound?
**A.** > 100 µM

**Q.** And the GI50 [8]?
**A.** 31.3 µM

**Q.** What about the TGI [8] of the same compound?
**A.** 99.3 µM

**Q.** What about the GI50 [9] of the same compound?
**A.** 59.4 µM

**Q.** What about the TGI [9] of the same compound?
**A.** > 100 µM

**Q.** `N.N.N.N.N.NC(=O)[O-].[Co+3].[I-]` was tested. Which GI50 [1] did it give?
**A.** > 100 µM

**Q.** What about the TGI [1] of the same compound?
**A.** > 100 µM

**Q.** And the GI50 [2]?
**A.** 18.7 µM

**Q.** And the TGI [2]?
**A.** > 100 µM

**Q.** And the GI50 [4]?
**A.** > 100 µM

**Q.** And the TGI [4]?
**A.** > 100 µM

**Q.** And the GI50 [6]?
**A.** > 100 µM

**Q.** What about the TGI [6] of the same compound?
**A.** > 100 µM

**Q.** What about the GI50 [7] of the same compound?
**A.** > 100 µM

**Q.** And the TGI [7]?
**A.** > 100 µM

**Q.** And the GI50 [9]?
**A.** > 100 µM

**Q.** What about the TGI [9] of the same compound?
**A.** > 100 µM

**Q.** For `CC(C)N(O)C(=N)c1ccccc1`, which TGI [10] is on record?
**A.** > 100 µM

**Q.** What about the TGI [1] of the same compound?
**A.** > 100 µM

**Q.** And the TGI [2]?
**A.** > 100 µM

**Q.** And the TGI [4]?
**A.** > 100 µM

**Q.** And the TGI [6]?
**A.** > 100 µM

**Q.** And the TGI [7]?
**A.** > 100 µM

**Q.** What about the TGI [9] of the same compound?
**A.** > 100 µM

**Q.** What does the source list for `O=C(O)/C(Cl)=C(\Cl)C(=O)c1ccccc1`?
**A.** TGI [10]: > 100 µM; TGI [1]: > 100 µM; TGI [2]: > 100 µM; TGI [4]: > 100 µM; TGI [6]: > 100 µM; TGI [7]: > 100 µM; TGI [9]: > 100 µM

**Q.** With `O=c1c2ccc(S(=O)(=O)c3ccc4c(=O)n5c6ccccc6nc5c5cccc3c45)c3cccc(c32)c2nc3ccccc3n12` as the compound, how does the TGI [10] read?
**A.** > 100 µM

**Q.** And the TGI [1]?
**A.** > 100 µM

**Q.** What about the TGI [3] of the same compound?
**A.** > 100 µM

**Q.** What about the TGI [4] of the same compound?
**A.** > 100 µM

**Q.** What about the TGI [5] of the same compound?
**A.** 99.3 µM

**Q.** And the TGI [6]?
**A.** > 100 µM

**Q.** What about the TGI [7] of the same compound?
**A.** > 100 µM

**Q.** What about the TGI [8] of the same compound?
**A.** > 100 µM

**Q.** What about the TGI [9] of the same compound?
**A.** > 100 µM
